Data published in paper PMC7555825, “New Insights of the Zn(II)-Induced P2 × 4R Positive Allosteric Modulation: Role of Head Receptor Domain SS2/SS3, E160 and D170” (International Journal of Molecular Sciences, 2020).
Substitutions are numbered along the chain they refer to.

Experiments:
[1] = molecular target: T1, rP2 × 2R (Rattus norvegicus, UniProt P49653); conditions: NEM treatment + Zn(II) group; control before treatment (first ATP curve)
T1 sequence (P49653 1-472): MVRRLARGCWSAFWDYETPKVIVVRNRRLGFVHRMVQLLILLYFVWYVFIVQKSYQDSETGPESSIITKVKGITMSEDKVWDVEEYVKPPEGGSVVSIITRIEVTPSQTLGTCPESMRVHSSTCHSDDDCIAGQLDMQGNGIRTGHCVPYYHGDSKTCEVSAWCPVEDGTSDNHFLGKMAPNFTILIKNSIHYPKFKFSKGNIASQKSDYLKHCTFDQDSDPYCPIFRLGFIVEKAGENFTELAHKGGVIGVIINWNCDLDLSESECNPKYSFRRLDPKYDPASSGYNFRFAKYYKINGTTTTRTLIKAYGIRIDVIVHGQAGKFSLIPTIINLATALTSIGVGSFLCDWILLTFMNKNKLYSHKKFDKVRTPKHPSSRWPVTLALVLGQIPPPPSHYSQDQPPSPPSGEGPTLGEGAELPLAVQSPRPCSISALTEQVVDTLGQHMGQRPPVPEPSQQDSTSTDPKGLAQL

[2] = test system: D170A mutant; design: method as in Kasuya et al., (2016) 38; conditions: ref Kasuya et al., (2016) 38; cited from earlier work
[3] = molecular target: T1, rP2 × 2R; assay: Short protocol: Zn(II) potentiation of single 10 µM ATP-evoked currents before/after thiol reagent treatment, rP2 × 2R oocytes; assay type: cell-based; design: expressed in transfected cells; host or cells: Xenopus laevis oocytes (intranuclear plasmid injection); conditions: for times potentiation of ATP-evoked currents by Zn(II): 30 µM Zn(II)
Experimental: (§1) A simpler and shorter assay to test the Zn(II) potentiation was developed to better assess the loss of Zn(II) modulation elicited by the joint co-treatment of NEM plus Zn(II). […] Ten minutes after alkylator washout, cells were treated with Zn(II) plus NEM or iodoacetamide (IA) for 5 min followed by 20 min of alkylator washout. Next, the P2 × R was tested again to examine the magnitude of the Zn(II) potentiation.
(§2) After 10 min of washout we applied 300 µM NEM, 300 µM IA, 300 µM IAc, or 300 µM DTNB for 5 min in absence or presence of Zn(II) (10 µM for rP2 × 4R and 30 µM for rP2 × 2R).

[4] = molecular target: T2, rP2 × 4R (Rattus norvegicus, UniProt P51577); assay: Short protocol: Zn(II) potentiation of single 10 µM ATP-evoked currents before/after thiol reagent treatment, rP2 × 4R oocytes; assay type: cell-based; conditions: for fold increase of ATP-evoked currents by Zn(II): 10 µM ATP
T2 construct: host or cells: Xenopus laevis oocytes (intranuclear plasmid injection, pcDNA3)
T2 sequence (P51577 1-388): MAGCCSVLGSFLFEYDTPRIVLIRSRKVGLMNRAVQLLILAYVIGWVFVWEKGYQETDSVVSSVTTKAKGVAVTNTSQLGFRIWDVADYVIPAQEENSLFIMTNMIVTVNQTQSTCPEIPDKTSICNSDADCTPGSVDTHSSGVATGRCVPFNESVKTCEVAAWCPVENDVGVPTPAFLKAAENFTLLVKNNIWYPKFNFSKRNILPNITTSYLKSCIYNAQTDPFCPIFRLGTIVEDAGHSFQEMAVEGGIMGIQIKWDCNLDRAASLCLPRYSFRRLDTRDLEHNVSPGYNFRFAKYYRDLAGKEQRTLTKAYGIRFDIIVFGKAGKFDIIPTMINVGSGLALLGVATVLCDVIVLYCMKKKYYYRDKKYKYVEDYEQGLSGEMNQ
Experimental: as §1, §2
After 10 min of washout we applied 300 µM NEM + 10 µM DTT.

[5] = molecular target: T1, rP2 × 2R; design: expressed in transfected cells; host or cells: Xenopus laevis oocytes (intranuclear plasmid injection); method as in PMID 10737610, PMID 10188989, PMID 10322050, PMID 8622997; conditions: P2 × 2R; cited from earlier work
[6] = molecular target: T3, rP2 × 4R E118Q mutant (Rattus norvegicus, UniProt P51577, E118Q); assay: ATP concentration–response curves, voltage clamp, E118Q mutant; assay type: cell-based; conditions: 10 µM Zn(II)
T3 construct: host or cells: Xenopus laevis oocytes
T3 sequence (P51577 1-388 E118Q): T2 sequence (P51577 1-388) with E118Q

Compound: Nc1ncnc2c1ncn2[C@@H]1O[C@H](COP(=O)(O)OP(=O)(O)OP(=O)(O)O)[C@@H](O)[C@H]1O [ATP, adenosine triphosphate]
- Imax [1]: 26.7 ± 3.5 µA

Compound: [Cl-].[Cl-].[Zn+2] [Zn(II), zinc chloride (ZnCl2)]
- fold potentiation of the 3 µM ATP-gated currents [2]: 2 fold
- times potentiation of ATP-evoked currents by Zn(II) ([3]; before IA + Zn(II) treatment, Figure 2F): 8.3 ± 4.0 times
- times potentiation of ATP-evoked currents by Zn(II) ([3]; before NEM + Zn(II) treatment, Figure 2E): 11.4 ± 2.0 times
- Zn(II) concentration potentiating the ATP-evoked currents ([3]; co-application with ATP, Figure S1 right): 30 to 300 µM
- fold increase of ATP-evoked currents by Zn(II) ([4]; 10 µM Zn(II), after 300 µM NEM plus 10 µM Zn(II) incubation): 1.3 ± 0.2 fold
- fold increase of ATP-evoked currents by Zn(II) ([4]; 10 µM Zn(II), after 300 µM NEM treatment (no Zn(II)) and washout): 1.6 ± 0.2 fold
- fold increase of ATP-evoked currents by Zn(II) ([4]; 10 µM Zn(II), before NEM plus Zn(II) incubation): 2.4 ± 0.3 fold
- fold increase of ATP-evoked currents by Zn(II) ([4]; 10 µM Zn(II), before NEM treatment): 1.8 ± 0.1 fold
- fold potentiation of ATP-evoked currents by Zn(II) ([4]; 10 µM Zn(II), before 10 µM DTT + 300 µM NEM treatment): 2.0 ± 0.2 fold
- ATP plus Zn(II) current after DTT plus NEM treatment, fold for the first ATP application ([4]; 10 µM Zn(II), no potentiation by Zn(II) observed): 2.4 ± 0.7 fold
- fold potentiation of 10 µM ATP-evoked currents by Zn(II) ([4]; 10 µM Zn(II), prior to any treatments): ~2 fold
- fold Zn(II)-induced potentiation of ATP-evoked currents ([4]; after 300 µM DTNB plus 10 µM Zn(II) treatment): 2.1 ± 0.4 fold
- fold Zn(II)-induced potentiation of ATP-evoked currents ([4]; after 300 µM IAc plus 10 µM Zn(II) treatment): 2.4 ± 0.7 fold
- reversibility of the metal effect ([4]; after 10 min washout initial 10 µM ATP-gated current fully recovered): reversible
- fold Zn(II)-induced potentiation of ATP-evoked currents ([4]; before DTNB plus Zn(II) treatment): 1.9 ± 0.3 fold
- fold Zn(II)-induced potentiation of ATP-evoked currents ([4]; before IAc plus Zn(II) treatment): 2.2 ± 0.2 fold
- fold leftward displacement of the ATP concentration–response curve by Zn(II) [5]: 5 fold
- fold leftward shift of ATP concentration–response curve by Zn(II) [6]: 13.6 fold
